Test results: US20250032788A1, “COMPOSITIONS AND METHODS FOR TREATING WITH A COMBINATION OF ALTERNATING ELECTRIC FIELDS AND DNA-DEPENDENT PROTEIN KINASE INHIBITORS” (NOVOCURE GMBH, priority 2023, published 2025)
“Also recorded” adds a separate entry of the source.

Legend:
Assay type in all cases: cell-based
[1] = tested on: H1299 cells; test: Concomitant TTFields and inhibitor: cell count, colony formation, annexin V/7AAD apoptosis, H1299; conditions: TTFields 0.97 V/cm RMS, 150 kHz, 72 h
Procedure: (§1) In these experiments 15,000 of H1299 cells/dish were seeded in inovitro dishes and incubated overnight to allow cell attachment. The cells were then treated with TTFields (0.97 V/cm RMS, 150 KHz, 72 h), alone or with the addition of different concentrations of nedisertib. Efficacy was measured by analyzing cell count by flow cytometer (Guava easy Cyte HT), colony formation, and apoptosis induction by annexin V/7AAD staining. The overall effect was calculated by multiplying cell count with colony formation.
as §1, with “The cells were then treated with TTFields (0.97 V/cm RMS, 150 KHz, 72 h), alone or with the addition of different concentrations of nedisertib.” left out

[2] = tested on: A549 cells; test: Concomitant TTFields and inhibitor: cell count, colony formation, annexin V/7AAD apoptosis, A549; conditions: for interaction of co-application of TTFields and inhibitor: summary statement
Procedure: as §1, with “A549” for “H1299”, “(0.97V/cm” for “(0.97 V/cm”, “kHz,” for “KHz,”, “nedisertib,” for “nedisertib.”
as §1, with “A549” for “H1299”, “The cells were then treated with TTFields (0.97 V/cm RMS, 150 KHz, 72 h), alone or with the addition of different concentrations of nedisertib.” left out

[3] = tested on: A549 cells; test: Cell cycle distribution by flow cytometer, A549; conditions: for change in the sub G1 phase / cell cycle distribution, concomitant treatment with TTFields: 150 kHz; for cell cycle distribution, concomitant treatment with TTFields: different times
Procedure: (§2) The mechanism of action of the concomitant treatment was investigated and cell cycle analysis was performed. In these experiments 15,000 of A549 cells/dish were seeded in inovitro dishes and incubated overnight to allow cell attachment. The cells were then treated with TTFields (0.97 V/cm RMS. 150 kHz) for different times, alone or with the addition of 6 μM of nedisertib (FIG. 14). Cell cycle distribution was performed for each treatment alone and for the concomitant treatments using the Cytek® Northern Lights™ flow cytometer.
(§3) In these experiments, 15,000 of A549 cells/dish were seeded in inovitro dishes and incubated overnight to allow cell attachment. […] Cell cycle distribution was performed for each treatment alone and for the concomitant treatments using the Cytek® Northern Lights™ flow cytometer.

[4] = tested on: A549 cells; test: Inhibitor titration, cell count by flow cytometer, A549; conditions: 72 hr, no TTFields
Procedure: (§4) This work was began with the titration of nedisertib. For these experiments 15,000 of A549 or H1299 cells/dish were seeded in 12-well plate and incubated overnight to allow cell attachment. The cells were then treated with various concentrations of nedisertib for 72 hr. The remaining cells were counted by flow cytometer (Guava easyCyte HT) (FIG. 11). […] For these experiments 15,000 of A549 or H1299 cells/dish were seeded in 12-well plates and incubated overnight to allow cell attachment. […] The remaining cells were counted by flow cytometer (Guava easy Cyte HT).

[5] = tested on: H1299 cells; test: Cell cycle distribution by flow cytometer, H1299; conditions: 150 kHz, different times
Procedure: as §2, with “Similar results to the A549 cells were obtained in the H1299 cell line, where” for “The mechanism of action of”, “results in G1 arrest (FIG. 15).” for “was investigated and cell cycle analysis was performed.”, “H1299” for “A549”, “6.25” for “6”, “nedisertib.” for “nedisertib (FIG. 14).”
as §3, with “Similar results were obtained in the H1299 cell line, where the concomitant treatment results in G1 arrest (FIG. 20). In” for “In”, “experiments” for “experiments,”, “H1299” for “A549”

[6] = tested on: H1299 cells; test: Inhibitor titration, cell count by flow cytometer, H1299; conditions: 72 hr, no TTFields
Procedure: as §4

[7] = biological target: T1, DNA-PK (Homo sapiens, UniProt P78527); test: Western blot of DNA-PK autophosphorylation (pS2056) after radiation in primary glioma stem-like cells; conditions: VX984 250 nM, radiation 5 Gy, CX18 edge 2, CX18 core 1, OX5 edge and OX5 core
T1 construct: primary glioma stem-like cells (GSCs) treated with DNA-PKi or IR alone or in combination; endogenous in cells; host or cells: CX18 core 1 / edge 2 and OX5 core / edge primary glioma stem-like cells

[8] = tested on: CX18 edge 2, CX18 core 1, OX5 edge and OX5 core primary glioblastoma cells; test: Clonogenic survival assay with TTFields, VX984 and radiation in 3D Alvetex culture; conditions: VX984 250 nM, 1 hr pre-treatment, TTFields 200 kHz, 72 hr, radiation, n=3
Procedure: Clonogenic survival assays of cells pre-treated with VX984 (250 nM, 1 hr) before TTFields incubation (200 kHz, 72 hr) in CX18 edge 2, CX18 core 1, OX5 edge and OX5 core cells. n=3, statistical significance denoted through ANOVA one-way analysis. Representative images of cell death post TTFields treatment in CX18 edge 2), CX18 core 2, OX5 edge and OX5 core cells.
FIG. 6 is a table with a summary of the survival data of TTFields alongside VX984 and radiation. The average intratumoural survival fractions (INTRA); OX5 core vs edge and CX18 core vs edge and the average intertumoural survival fraction; OX5 INTRA vs CX18 INTRA are shown. Bliss indices are calculated to ascertain if cell death is synergistic or addictive using the survival fraction product of DMSO+TTF and Combo−TTF as a ratio against Combo+TTF. Ratios<1.1 are seen as additive cell death whereas>1.1 is synergistic.

[9] = TTFields 0.97 V/cm RMS, 150 kHz, 72 h, different concentrations
[10] = 0.11 μM CC-115, TTFields 0.97 V/cm RMS
[11] = 6 μM nedisertib, TTFields 0.97 V/cm RMS

Compound: CCN1C(=O)CNc2ncc(-c3ccc(-c4nc[nH]n4)nc3C)nc21 [CC-115]
- overall effect (cell count multiplied by colony formation) of inhibitor with TTFields ([1]; different concentrations): additive overall effect; also recorded: enhance
- levels of apoptosis at the concentration used for cell cycle analysis ([2]; 0.11 μM CC-115): low levels of apoptosis
- overall effect (cell count multiplied by colony formation) of inhibitor with TTFields [2, 9]: synergistically enhanced; also recorded: enhance
- interaction of co-application of TTFields and inhibitor [2]: synergistic interaction
- change in the sub G1 phase [3, 10]: don't see a significant change
- cell cycle distribution, concomitant treatment with TTFields [3, 10]: induced G1 arrest and a decreased number of s-phase cells; also recorded: promotes cell cycle arrest
- IC50 (remaining cells counted) [4]: much lower than that of nedisertib
- cell cycle distribution, concomitant treatment with TTFields ([5]; 0.3125 μM CC-115, TTFields 0.97 V/cm RMS): G1 arrest; also recorded: promotes cell cycle arrest
- IC50 (remaining cells counted) [6]: much lower than that of nedisertib; also recorded: higher than that of A549

Compound: COc1ccc([C@@H](O)c2cc(-c3ncnc4cc(N5CCOCC5)ccc34)c(F)cc2Cl)nn1 [Nedisertib]
- apoptotic effect of the concomitant treatment (annexin V/7AAD) [1]: only significant in the higher doses
- interaction of concomitant treatment of TTFields and inhibitor [1]: additive interaction
- cytotoxic effect (cell count) of inhibitor with TTFields ([1]; different concentrations): enhance
- overall effect (cell count multiplied by colony formation) of inhibitor with TTFields ([1]; different concentrations): enhance
- interaction of concomitant treatment of TTFields and inhibitor ([1]; listed as nedisertib): additive effect
- levels of apoptosis at the concentration used for cell cycle analysis ([2]; 6 μM nedisertib): low levels of apoptosis
- apoptotic effect of the concomitant treatment (annexin V/7AAD) ([2]; TTFields 0.97 V/cm RMS, 150 kHz, 72 h): only significant in the higher doses
- cytotoxic effect (cell count) of inhibitor with TTFields [2, 9]: synergistically enhanced; also recorded: enhance
- overall effect (cell count multiplied by colony formation) of inhibitor with TTFields [2, 9]: synergistically enhanced; also recorded: enhance
- interaction of co-application of TTFields and inhibitor [2]: synergistic interaction
- change in the sub G1 phase [3, 11]: don't see a significant change
- cell cycle distribution, concomitant treatment with TTFields [3, 11]: highest level of arrest; also recorded: promotes cell cycle arrest
- cell cycle distribution, inhibitor alone ([3]; 6 μM nedisertib, at most time points): induce G1 arrest and a decreased number of s-phase cells
- cell cycle distribution, concomitant treatment with TTFields ([5]; 6.25 μM nedisertib, TTFields 0.97 V/cm RMS): G1 arrest; also recorded: promotes cell cycle arrest
- IC50 (remaining cells counted) [6]: higher than that of A549

Compound: VX984
- pDNAPK (pS2056) signal in response to radiation [7]: depletion of pDNAPK (pS2056) signal
- glioblastoma cell death (clonogenic survival) [8]: enhances glioblastoma cell death by radiosensitisation
